SMILES strings stand for the structures. Active and inactive are the calls of the source. No cut-off for these calls is given here.

The source of these data is ChEMBL document CHEMBL1250447, “An integrated platform of genomic assays reveals small-molecule bioactivities” (Nat Chem Biol, 2008).

Type in all cases: functional, organism-based
Experiment [1] has as its system Saccharomyces cerevisiae. As to the kind of experiment: Suppression of […] gene in Saccharomyces cerevisiae harboring cdc28-as transfected with 2 uM expression vector TEplac195 at 5 uM using multicopy pool construction by TAG microarray.
Experiment [2] relates to Saccharomyces cerevisiae. As to the kind of experiment: Suppression of […] gene in Saccharomyces cerevisiae harboring cdc28-as at 2.5 uM using deletion pool construction by TAG microarray.
The subject of experiment [3] is Saccharomyces cerevisiae. As to the kind of experiment: Suppression of TOS1 gene in Saccharomyces cerevisiae harboring cdc28-as transfected with 2 uM expression vector TEplac195 at 500 nM using multicopy pool construction by TAG microarray.
Experiment [4] deals with Saccharomyces cerevisiae. As to the kind of experiment: Suppression of IFA38 gene in Saccharomyces cerevisiae harboring cdc28-as transfected with 2 uM expression vector TEplac195 at 500 nM using multicopy pool construction by TAG microarray.
Experiment [5] has as its system Saccharomyces cerevisiae. As to the kind of experiment: Suppression of CSH1 gene in Saccharomyces cerevisiae harboring cdc28-as transfected with 2 uM expression vector TEplac195 at 500 nM using multicopy pool construction by TAG microarray.
For experiment [6], the system named is Saccharomyces cerevisiae. As to the kind of experiment: Suppression of CDC28 gene in Saccharomyces cerevisiae harboring cdc28-as transfected with 2 uM expression vector TEplac195 at 500 nM using multicopy pool construction by TAG microarray.
The subject of experiment [7] is Saccharomyces cerevisiae. As to the kind of experiment: Antimicrobial activity against glc7-129 allele containing Saccharomyces cerevisiae harboring cdc28-as transfected with 2 uM expression vector TEplac195 at 25 nM using deletion pool construction.
The test system of experiment [8] is Saccharomyces cerevisiae. As to the kind of experiment: Antimicrobial activity against glc7-127 allele containing Saccharomyces cerevisiae harboring cdc28-as transfected with 2 uM expression vector TEplac195 at 25 nM using deletion pool construction.
For experiment [9], the system named is Saccharomyces cerevisiae. As to the kind of experiment: Suppression of TUB2 gene in Saccharomyces cerevisiae harboring cdc28-as transfected with 2 uM expression vector TEplac195 at 33.2 uM using multicopy pool construction by TAG microarray.
For experiment [10], the system named is Saccharomyces cerevisiae. As to the kind of experiment: Suppression of TUB1 gene in Saccharomyces cerevisiae harboring cdc28-as transfected with 2 uM expression vector TEplac195 at 33.2 uM using multicopy pool construction by TAG microarray.
The subject of experiment [11] is Saccharomyces cerevisiae. As to the kind of experiment: Suppression of TUB2 gene in Saccharomyces cerevisiae harboring cdc28-as at 15 uM using deletion pool construction by TAG microarray.
Experiment [12] deals with Saccharomyces cerevisiae. As to the kind of experiment: Suppression of TUB1 gene in Saccharomyces cerevisiae harboring cdc28-as at 15 uM using deletion pool construction by TAG microarray.
The subject of experiment [13] is Saccharomyces cerevisiae. As to the kind of experiment: Antimicrobial activity against glc7-129 allele containing Saccharomyces cerevisiae harboring cdc28-as transfected with 2 uM expression vector TEplac195 at 2.5 nM using deletion pool construction.
The test system of experiment [14] is Saccharomyces cerevisiae. As to the kind of experiment: Antimicrobial activity against glc7-127 allele containing Saccharomyces cerevisiae harboring cdc28-as transfected with 2 uM expression vector TEplac195 at 2.5 nM using deletion pool construction.
Experiment [15] concerns Saccharomyces cerevisiae. As to the kind of experiment: Suppression of HEM1 gene in Saccharomyces cerevisiae harboring cdc28-as transfected with 2 uM expression vector TEplac195 at 0.015% using multicopy pool construction by TAG microarray.
In experiment [16] the test system is Saccharomyces cerevisiae. As to the kind of experiment: Suppression of HEM1 gene in Saccharomyces cerevisiae harboring cdc28-as at 0.002% using deletion pool construction by TAG microarray.

With `C/C1=C/C(=O)O[C@@H]2C[C@@H](CC[C@H](C)/C=C\C=C\CC1)O[C@@](O)([C@@H]1CSC(=O)N1)C2`, the outcome in the experiment with Saccharomyces cerevisiae [1] and in the experiment with Saccharomyces cerevisiae [2] was Active.

On to `CC(C)(C)n1nc(Cc2cccc3ccccc23)c2c(N)ncnc21`, for which the outcome with Saccharomyces cerevisiae [3], in the experiment with Saccharomyces cerevisiae [4], in the experiment on Saccharomyces cerevisiae [5] and in the experiment on Saccharomyces cerevisiae [6] was Active.

As to `COC[C@@H]([C@H](O)[C@H](O)C(=O)NCC[C@H](C)c1nc(/C=C/C[C@@H]2O[C@]3(C[C@@H](O)[C@@H]2C)O[C@H]([C@H](C[C@H](O)[C@H](C)[C@H](O)[C@H](C)/C=C(C)/C(C)=C/C=C/C(C)=C\C#N)OC)[C@H](OP(=O)(O)O)C3(C)C)co1)N(C)C`, the result in the experiment with Saccharomyces cerevisiae [7] was Active. The result with Saccharomyces cerevisiae [8] was inactive.

As for `COC(=O)Nc1nc2cc(C(=O)c3cccs3)ccc2[nH]1`, the outcome in the experiment on Saccharomyces cerevisiae [9], with Saccharomyces cerevisiae [10], with Saccharomyces cerevisiae [11] and with Saccharomyces cerevisiae [12] was Active.

Take `C[C@@]12C(=O)OC(=O)[C@]1(C)[C@H]1CC[C@@H]2O1`: the result with Saccharomyces cerevisiae [13] was inactive. Moreover, the result in the experiment with Saccharomyces cerevisiae [14] was Active.

As for `COS(C)(=O)=O`, the outcome with Saccharomyces cerevisiae [15] and in the experiment with Saccharomyces cerevisiae [16] was Active.
